Assays:
[1] = tested on: PARP cleavage in Jurkat cells; assay: PARP cleavage in staurosporine treated Jurkat cells (immunoblot); type: cell-based, human
Experimental: FIG. 1. […] (A) Effect of the JNK inhibitor SP600125 on AICD in the MART-127-35 epitope specific CTL. Histogram represents FACS analysis of the percent of MART-127-35 epitope specific CTLs that were tetramer positive and annexin negative after restimulation with MAGE-3271-279 control peptide (M3) pulsed T2 cells or MART-127-35 peptide (M1) pulsed T2 cells either alone or re-stimulated after pre-incubation with JNK inhibitor SP600125, p38-kinase inhibitor SB203580, ERK1/2 inhibitor PD98059 or caspase-inhibitor z-VAD-fink. MAGE-3271-279. (B) JNK activation results in phosphorylation of c-Jun during AICD in CTL that is blocked by SP600125. Immunoblots show analyses of CTL extracts probed with anti-phosphor-c-Jun, anti-c-Jun, and anti-actin antibodies. […] (i) Jurkat cells were treated with PMA+ionomycin in the absence or presence of SP600125 and JNK activation (c-Jun phosphorylation) was assessed with anti-phospho-c-Jun antibody. […] (ii) Jurkat cells were treated with Staurosporine for 1 and 4 hrs in the absence (S) or presence of caspase inhibitor, z-VAD-fmk (CI), JNK inhibitor, SP600125 (SP) or ERK1/2 inhibitor PD98059 (PD) and cleavage of PARP was detected by immunoblotting, using actin as a loading control. […] Percent annexin positive cells in all samples were quantified by FACS analysis and shown below the blot […]

Jurkat cells = assay: Staurosporine-induced death of Jurkat cells (annexin FACS); type: cell-based, human; settings: annexin positive cells by FACS
Experimental: FIG. 1. […] (A) Effect of the JNK inhibitor SP600125 on AICD in the MART-127-35 epitope specific CTL. Histogram represents FACS analysis of the percent of MART-127-35 epitope specific CTLs that were tetramer positive and annexin negative after restimulation with MAGE-3271-279 control peptide (M3) pulsed T2 cells or MART-127-35 peptide (M1) pulsed T2 cells either alone or re-stimulated after pre-incubation with JNK inhibitor SP600125, p38-kinase inhibitor SB203580, ERK1/2 inhibitor PD98059 or caspase-inhibitor z-VAD-fink. MAGE-3271-279. (B) JNK activation results in phosphorylation of c-Jun during AICD in CTL that is blocked by SP600125. Immunoblots show analyses of CTL extracts probed with anti-phosphor-c-Jun, anti-c-Jun, and anti-actin antibodies. […] (i) Jurkat cells were treated with PMA+ionomycin in the absence or presence of SP600125 and JNK activation (c-Jun phosphorylation) was assessed with anti-phospho-c-Jun antibody. […] (ii) Jurkat cells were treated with Staurosporine for 1 and 4 hrs in the absence (S) or presence of caspase inhibitor, z-VAD-fmk (CI), JNK inhibitor, SP600125 (SP) or ERK1/2 inhibitor PD98059 (PD) and cleavage of PARP was detected by immunoblotting, using actin as a loading control. […] Percent annexin positive cells in all samples were quantified by FACS analysis and shown below the blot

[2] = tested on: MART-127-35 epitope specific human primary CTL; assay: AICD induction and quantitation in epitope specific primary CTL (tetramer/annexin V FACS); type: cell-based; settings: pre-incubation about 45 min, restimulation with MART-127-35 peptide pulsed T2 cells, kinase inhibitors 25 μM, z-VAD-fmk 100 μM, Fc chimeras 10 μg/ml
Experimental: FIG. 10. Effect of external death receptor blockade and MAP kinase inhibitors on AICD in the epitope specific CTLs upon secondary encounter of the cognate epitope. The CTLs were pre-incubated at optimal concentration for about 45 min. at about 37° C. with pan caspase inhibitor z-VAD-fmk (100 μM); human Fas/Fc chimera, human TNF-RI/Fc chimera, human TRAIL-RI/Fc chimera, human TRAIL-RII/Fc chimera and human IFN-γ RI/Fc chimeric proteins (10 μg/ml); p38 kinase inhibitor SB203580, JNK inhibitor anthra[1,9-cd]pyrazol-6(2H)-one (SP600125), […] inhibitor PD98059 (25 μM). Then the pretreated as well as untreated CTLs were incubated with T2 cells either alone or loaded with peptide. About 4 hours after secondary exposure cells were stained for determining: (A) Number of tetramer^+ cells out of the CD8^+ T cells [Top panel]; number of tetramer^+/Annexin V^+ and tetramer^+/Annexin^− populations [Bottom panel]. […] (B) Effect of the MAP kinase inhibitors on IFN-γ response by the effector cells.
AICD induction and quantitation. AICD in the human primary CTL primed and expanded specifically for melanoma epitope MART-127-35 was induced by re-exposure of the CTLs to MART-127-35 peptide (1 μg/ml) as reported previously. Staurosporine mediated death was induced by exposure of CTL to 1 μM staurosporine for 4 hr. Quantitation of AICD and the effects of various inhibitors on AICD of CTLs, were carried out by annexin-V staining followed by FACS analyses as reported previously.
In test whether or not the epitope specific primary CTLs undergo AICD, the activated CTLs were exposed to peptide [1 μg/ml] loaded T2 cells (Effector: Target=100) at different time points of the cultures. Thereafter, the evidence of apoptosis was determined by flow cytometry with triple color staining (CD8, MART-127-35/HLA-A2 tetramer and annexin V) at different time points (4-18 h). Experiments were carried out in triplicate wells and significance was calculated by One-way analysis of variance (ANOVA) using Sigma Stat statistical software, Chicago, Ill.
To evaluate the effect of various agents in modulating AICD, the CTLs were pre-incubated with various compounds at optimal concentration for 45 min. at 37° C. and then exposed to T2 cells alone or loaded with peptide.

Mart-1 primary CTLs = assay: Mitochondrial transmembrane potential (DiOC6 staining); type: cell-based, human; settings: induced by re-stimulation with cognate peptide; data not shown
Experimental: (§1) FIG. 12. Effect of antigen specific secondary stimulation on mitochondrial transmembrane membrane potential (Δψm), pro- and anti-apoptotic protein and expression of cell surface molecules. (A) Differential effect on membrane polarization in Mart-1 primary CTLs (top panel) vs. Jurkat T cells (bottom panel). CTLs were incubated with T2 cells either alone or loaded with peptide. After overnight secondary exposure cells were stained with Mart-1 tetramer/CD8 and DiOC6. Histogram represents the fluorescence of DiOC6 in the gated antigen specific tetramer^+ population (top panel). Jurkat T cells were also analyzed for modulation of membrane potential after TCR-driven stimulation (bottom panel). Values represent the mean±SD of fluorescence intensity triplicates from one out of three separate experiment. *p<0.001 (One Way ANOVA). […] (C) Expression of different cell surface receptors for survival or death signal in antigen specific population upon secondary stimulation. Values on left upper corner represent the geometric mean of the fluorescence intensity for that particular marker when stimulated with T2/MAGE-3271-279 while that on right upper corner represent the geometric mean of the fluorescence intensity when stimulated with T2/MART-127-35.

[3] = tested on: Bcl family proteins in CTL; assay: Western blot of Bcl family pro- and anti-apoptotic proteins in CTL after secondary stimulation; type: cell-based, human
Experimental: as §1
Washed cell pellets were lysed in RIPA buffer and a cytosolic fraction was prepared by spinning the lysate at 15,000 rpm. Proteins (20 μg/well) were separated on 15% SDS-PAGE, transferred onto nitrocellulose filters, probed with appropriate antibodies. Antibodies for Bcl-2, phospho Bcl-2, Bim, BCI-XL, Bax, Actin were purchased from Santa-Cruz Biotechnology, Santa-Cruz, Calif. Anti-Mcl-1 antibody was purchased from BD Pharmingen, Palo Alto, Calif. Blots were developed by HRP-tagged secondary antibody (Santa-Cruz Biotechnology, Santa-Cruz, Calif.) using a chemoluminescence kit (Amersham Biosciences, Buckinghamshire, U. K.).

[4] = tested on: MART-127-35 epitope specific primary CTL; assay: DNA fragmentation analysis (agarose gel electrophoresis); type: cell-based, human; settings: 1 μM staurosporine for 4 hr
Experimental: Standard 2% agarose gel-electrophoresis (panel i) and pulse field DNA gel electrophoresis (panel ii) of: CTL in steady state (C) and after restimulation by the cognate peptide (M1).
DNA fragmentation analysis. DNA fragmentation was assessed by measuring single stranded nick generation, using single stranded DNA nick specific antibody (Alexis Biochemicals, CA, USA) with flow-cytometry and immunofluorescence according to published protocols. Antibody-stained cells were counterstained with 0.1 μg/ml DAPI in PBS for 10 min. Agarose gel electrophoresis was used to detect small oligosomal DNA fragmentation and pulse field electrophoresis (Bio-Rad CHEF-DRIII) was used (6 V/cm, 20-60 sec pulse overnight) to detect large-scale DNA fragmentation.

Compound: z-VAD-fmk
- effect on PARP cleavage induced by staurosporine ([1]; Jurkat cells, z-VAD-fmk 100 μM, staurosporine 1 μM): blocked
- protection from staurosporine-induced death (Jurkat cells): protected
- protection/rescue of CTL from AICD [2]: could not protect
- protection/rescue of CTL from AICD ([2]; listed as z-VAD-fink): did not prevent

Compound: C[S+]([O-])c1ccc(-c2nc(-c3ccncc3)c(-c3ccc(F)cc3)[nH]2)cc1 (centres unmarked) [SB203580]
- protection/rescue of CTL from AICD [2]: could not protect
- level of hyper polarization of mitochondrial transmembrane potential (Mart-1 primary CTLs): decreased
- BCI-XL expression [3]: non-selectively up regulated
- Bcl-2 expression [3]: non-selectively up regulated

Compound: CN[C@@H]1C[C@H]2O[C@@](C)([C@@H]1OC)n1c3ccccc3c3c4c(c5c6ccccc6n2c5c31)C(=O)NC4 [staurosporine]
- PARP cleavage ([1]; Jurkat cells treated with staurosporine (1 μM)): cleaved
- oligosomal DNA fragmentation [4]: clearly evident

Compound: COc1cccc(-c2cc(=O)c3ccccc3o2)c1N [PD98059]
- protection/rescue of CTL from AICD [2]: could not protect

Reference: patent US20070003531A1, “Methods for improving immunotherapy by enhancing survival of antigen-specific cytotoxic T lymphocytes” (University of Connecticut, priority 2005, published 2007)
